Source: US20080039455A1, “PYRAZOLOPYRIMIDINES AND SALTS THEREOF, PHARMACEUTICAL COMPOSITIONS COMPRISING SAME, METHODS OF PREPARING SAME AND USES OF SAME” (priority 2006, published 2008)

biological target: T1, human recombinant ALK1 (GST fused to ALK1 intracellular domain [His142-Gln503]) (Homo sapiens, UniProt P37023); experiment: ALK1-Kinase Flashplate-Assay; format: biochemical; details: 0.5 μM ATP, biotinylated α-casein substrate; read-out: Assay 1 (ALK1-Kinase Flashplate-Assay IC50 class)
T1 construct: GST fused to ALK1 intracellular domain [His142-Gln503]; made in house
T1 sequence (P37023 142-503): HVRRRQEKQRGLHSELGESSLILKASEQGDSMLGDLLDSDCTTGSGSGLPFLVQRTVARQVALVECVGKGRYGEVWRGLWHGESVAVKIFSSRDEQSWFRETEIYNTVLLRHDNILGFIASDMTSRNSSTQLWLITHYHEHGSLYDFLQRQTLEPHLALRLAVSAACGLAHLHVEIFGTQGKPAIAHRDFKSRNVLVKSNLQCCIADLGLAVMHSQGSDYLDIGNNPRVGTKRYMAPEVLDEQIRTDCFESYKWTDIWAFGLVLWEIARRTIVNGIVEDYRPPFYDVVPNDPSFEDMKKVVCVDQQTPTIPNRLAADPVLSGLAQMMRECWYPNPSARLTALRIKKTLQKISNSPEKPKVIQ
Description: Biological Assay 1: ALK1-Kinase Flashplate-Assay
ALK1 phosphorylates serine/threonine residues of the biotinylated substrate bovine α-casein in the presence of [γ-^33P]ATP. Detection of the radiolabeled phosphorylated product is achieved by binding to streptavidine-coated Flashplates. The biotin moieties of biotinylated casein bind with high affinity to the streptavidine. The radiolabeled biotinylated casein produced by the ALK1 kinase reaction is able to generate a […] signal when strepatavidine-mediated binding occurs to the scintillant-containing surface of the Flashplates due to the close proximity of the radiolabel and the scintillant. […] The signals obtained are therefore indicative of the ALK1 kinase activity. Measurement is performed in a Perkin-Elmer TopCount or Perkin-Elmer ViewLux instrument.
Enzyme: Purified human recombinant ALK1 (GST fused to ALK1 intracellular domain [His142-Gln503]) produced in-house, aliquots stored at −80° C.;
Diluted enzyme working solution: 2.5 ng/μl ALK1 (in assay buffer) freshly prepared and chilled on ice until use.
Substrate: biotinylated bovine α-casein. Unbiotinylated casein obtained from Sigma was biotinylated by standard procedures using N-hydroxysuccinimide (NHS) ester of biotin.
Substrate working solution: 0.83 μM ATP, 1.67 μM biotinylated a-casein, 7.4 nCi [γ-^33P]ATP/μl in assay buffer
Assay plates: 384-well plates, small volume, white, Greiner (# 784075)
Flashplates: Streptavidin-coated Flashplates, Perkin Elmer (384-well # SPM410A)
Assay buffer: 50 mM Tris/HCl pH 8.0, 1 mM MnCl2, 1 mM DTT, 0.01% NP40, 0.5× Complete EDTA-free
Stop solution: 33.3 μM ATP, 33.3 mM EDTA, 0.07% Triton X-100 in PBS
Saturating buffer for Flashplates: 100 μM ATP, 0.2% Triton X-100 in PBS
Sealing tape: Greiner (# 676080)
Protocol for small volume 5 μl assay (all steps are performed at 20° C., pipetted with CyBi-Well and Multidrop Micro): • 1. 50 nl or 250 nl compound in 100% DMSO • 2. addition of 3 μl substrate working solution with CyBi-Well pipettor • 3. addition of 2 μl enzyme working solution with Multidrop Micro incubation for 60 min at room temperature • 4. addition of 15 μl Stop solution with CyBi-Well pipettor • 5. transfer of 18 μl assay mixture to Flashplates** with CyBi-Well pipettor incubation for at least 3 h at room temperature or over night at 4° C. to allow binding to the streptavidine-coated Flashplates • 6. washing the Flashplates 3 times with 50 μl PBS without Ca++ and Mg++ • 7. sealing with sealing tape • 8. Measurement in Topcount (60 sec/well) **Saturation of Flashplates: The Flashplates are preincubated for at least 1 hour with 50 μl saturating buffer. Remove 18 μl from the 50 μl and transfer 18 μl of the assay mixture to the Flashplate.
Final concentrations, calculated for 5 μl reaction volume: ALK1 5 ng/well; 1 μM biotinylated α-casein; 0.5 μM ATP; 22 nCi/well [γ-^33P]ATP; 1 mM MnCl2; 1 mM DTT; 50 mM Tris-HCl; pH 8.0; 0.01% NP40; 0.5× Complete EDTA-free; 1% or 5% DMSO.
The data were normalised (enzyme reaction without inhibitor=0% inhibition, enzyme reaction in the presence of 10 mM EDTA=100% inhibition) and IC50 values were calculated by a 4 parameter fit using an in-house software.

| Compound | IC50 [nM] |
| --- | --- |
| COc1ccc(-c2cnn3ccc(NCCO)nc23)cn1 [Example 164, 2-[3-(6-Methoxy-pyridin-3-yl)-pyrazolo[1,5-a]pyrimidin-5-ylamino]-ethanol] | 1000 to 10000 |
| COc1ccc(-c2cnn3ccc(NCc4cccnc4)nc23)cc1 [Example 167, [3-(4-Methoxy-phenyl)-pyrazolo[1,5-a]pyrimidin-5-yl]-pyridin-3-ylmethyl-amine] | 1000 to 10000 |
| COc1ccc(-c2cnn3ccc(NCc4cccnc4)nc23)cn1 [Example 171, [3-(6-Methoxy-pyridin-3-yl)-pyrazolo[1,5-a]pyrimidin-5-yl]-pyridin-3-ylmethyl-amine] | 1000 to 10000 |
| Cc1csc(-c2cnn3ccc(NCc4cccnc4)nc23)c1 [Example 172, [3-(4-Methyl-thiophen-2-yl)-pyrazolo[1,5-a]pyrimidin-5-yl]-pyridin-3-ylmethyl-amine] | 1000 to 10000 |
| COc1ccc(-c2cnn3ccc(Nc4ccc(N5CCOCC5)cc4)nc23)cc1 [Example 173, [3-(4-Methoxy-phenyl)-pyrazolo[1,5-a]pyrimidin-5-yl]-(4-morpholin-4-yl-phenyl)-amine] | 1000 to 10000 |
| COc1cccc(-c2cnn3ccc(Nc4cc(OC)c(OC)c(OC)c4)nc23)c1 [Example 178, [3-(3-Methoxy-phenyl)-pyrazolo[1,5-a]pyrimidin-5-yl]-(3,4,5-trimethoxy-phenyl)-amine] | 1000 to 10000 |
| COc1cc(Nc2ccn3ncc(-c4cnn(C)c4)c3n2)cc(OC)c1OC [Example 182, [3-(1-Methyl-1H-pyrazol-4-yl)-pyrazolo[1,5-a]pyrimidin-5-yl]-(3,4,5-trimethoxy-phenyl)-amine] | 1000 to 10000 |
| Cc1ccc(Nc2ccn3ncc(-c4cccc(N)c4)c3n2)cc1NS(C)(=O)=O [Example 186] | 1000 to 10000 |
| Cn1cc(-c2cnn3ccc(Nc4ccc(O)cc4)nc23)cn1 [Example 194, 4-[3-(1-Methyl-1H-pyrazol-4-yl)-pyrazolo[1,5-a]pyrimidin-5-ylamino]-phenol] | 1000 to 10000 |
| COc1cccc(-c2cnn3ccc(Nc4ccc(OC)nc4)nc23)c1 [Example 196, [3-(3-Methoxy-phenyl)-pyrazolo[1,5-a]pyrimidin-5-yl]-(6-methoxy-pyridin-3-yl)-amine] | < 1000 |
| COc1ccc(Nc2ccn3ncc(-c4cccc(NS(C)(=O)=O)c4)c3n2)cn1 [Example 197, N-{3-[5-(6-Methoxy-pyridin-3-ylamino)-pyrazolo[1,5-a]pyrimidin-3-yl]-phenyl}-methanesulfonamide] | 1000 to 10000 |
| COc1ccc(Nc2ccn3ncc(-c4cnn(C)c4)c3n2)cn1 [Example 198, (6-Methoxy-pyridin-3-yl)-[3-(1-methyl-1H-pyrazol-4-yl)-pyrazolo[1,5-a]pyrimidin-5-yl]-amine] | < 1000 |
| COc1ccc(Nc2ccn3ncc(-c4cnn(Cc5ccccc5)c4)c3n2)cn1 [Example 199, [3-(1-Benzyl-1H-pyrazol-4-yl)-pyrazolo[1,5-a]pyrimidin-5-yl]-(6-methoxy-pyridin-3-yl)-amine] | 1000 to 10000 |
| COc1cccc(-c2cnn3ccc(Nc4ccc(NS(=O)(=O)c5ccc(C)cc5)cc4)nc23)c1 [Example 200, N-{4-[3-(3-Methoxy-phenyl)-pyrazolo[1,5-a]pyrimidin-5-ylamino]-phenyl}-4-methyl-benzenesulfonamide] | 1000 to 10000 |
| CC(=O)c1cccc(-c2cnn3ccc(Nc4ccc(NS(=O)(=O)c5ccc(C)cc5)cc4)nc23)c1 [Example 201, N-{4-[3-(3-Acetyl-phenyl)-pyrazolo[1,5-a]pyrimidin-5-ylamino]-phenyl}-4-methyl-benzenesulfonamide] | 1000 to 10000 |
| Nc1ccc(C(=O)Nc2ccc(Nc3ccn4ncc(-c5cnn(Cc6ccccc6)c5)c4n3)cc2)cc1 [Example 204, 4-Amino-N-{4-[3-(1-benzyl-1H-pyrazol-4-yl)-pyrazolo[1,5-a]pyrimidin-5-ylamino]-phenyl}-benzamide] | 1000 to 10000 |
| Cc1ccc(Nc2ccn3ncc(-c4cccc(NS(C)(=O)=O)c4)c3n2)cc1NS(C)(=O)=O [Example 209, N-{5-[3-(3-Methanesulfonylamino-phenyl)-pyrazolo[1,5-a]pyrimidin-5-ylamino]-2-methyl-phenyl]-methanesulfonamide] | < 1000 |
| Cc1ccc(Nc2ccn3ncc(-c4cnn(C)c4)c3n2)cc1NS(C)(=O)=O [Example 210, N-{2-Methyl-5-[3-(1-methyl-1H-pyrazol-4-yl)-pyrazolo[1,5-a]pyrimidin-5-ylamino]-phenyl}-methanesulfonamide] | < 1000 |

Continued, values first:

| IC50 [nM] | Compound |
| --- | --- |
| 1000 to 10000 | O=C(O)/C=C/c1cccc(-c2cnn3ccc(NC4CCC(O)CC4)nc23)c1 (stereo not drawn) [Example 157, (E)-3-{3-[5-(4-Hydroxy-cyclohexylamino)-pyrazolo[1,5-a]pyrimidin-3-yl]-phenyl}-acrylic acid] |
| 1000 to 10000 | OCc1cccc(-c2cnn3ccc(NC4CCC(O)CC4)nc23)c1 (stereo not drawn) [Example 158, 4-[3-(3-Hydroxymethyl-phenyl)-pyrazolo[1,5-a]pyrimidin-5-ylamino]-cyclohexanol] |
| 1000 to 10000 | COc1cc(-c2cnn3ccc(NC4CCC(O)CC4)nc23)ccc1O (stereo not drawn) [Example 160, 4-[5-(4-Hydroxy-cyclohexylamino)-pyrazolo[1,5-a]pyrimidin-3-yl]-2-methoxy-phenol] |
| < 1000 | COc1cc(-c2cnn3ccc(NCCO)nc23)ccc1O [Example 165, 4-[5-(2-Hydroxy-ethylamino)-pyrazolo[1,5-a]pyrimidin-3-yl]-2-methoxy-phenol] |
| < 1000 | Oc1cccc(-c2cnn3ccc(NCc4cccnc4)nc23)c1 [Example 168, 3-{5-[(Pyridin-3-ylmethyl)-amino]-pyrazolo[1,5-a]pyrimidin-3-yl}-phenol] |
| 1000 to 10000 | OCc1cccc(-c2cnn3ccc(NCc4cccnc4)nc23)c1 [Example 170, (3-{5-[(Pyridin-3-ylmethyl)-amino]-pyrazolo[1,5-a]pyrimidin-3-yl}-phenyl)-methanol] |
| 1000 to 10000 | COc1cc(Nc2ccn3ncc(-c4cccc(C(N)=O)c4)c3n2)cc(OC)c1OC [Example 176, 3-[5-(3,4,5-Trimethoxy-phenylamino)-pyrazolo[1,5-a]pyrimidin-3-yl]-benzamide] |
| 1000 to 10000 | COc1cc(Nc2ccn3ncc(-c4cccc(C(C)=O)c4)c3n2)cc(OC)c1OC [Example 179, 1-{3-[5-(3,4,5-Trimethoxy-phenylamino)-pyrazolo[1,5-a]pyrimidin-3-yl]-phenyl}-ethanone] |
| < 1000 | COc1cccc(-c2cnn3ccc(Nc4ccc(O)cc4)nc23)c1 [Example 192, 4-[3-(3-Methoxy-phenyl)-pyrazolo[1,5-a]pyrimidin-5-ylamino]-phenol] |
| 1000 to 10000 | CC(=O)c1cccc(-c2cnn3ccc(Nc4ccc(O)cc4)nc23)c1 [Example 193, 1-{3-[5-(4-Hydroxy-phenylamino)-pyrazolo[1,5-a]pyrimidin-3-yl]-phenyl}-ethanone] |
| 1000 to 10000 | NC(=O)c1cccc(-c2cnn3ccc(NCc4ccncc4)nc23)c1 [Example 213, 3-{5-[(Pyridin-4-ylmethyl)-amino]-pyrazolo[1,5-a]pyrimidin-3-yl}-benzamide] |
| 1000 to 10000 | COc1cccc(-c2cnn3ccc(NCc4ccncc4)nc23)c1 [Example 215, [3-(3-Methoxy-phenyl)-pyrazolo[1,5-a]pyrimidin-5-yl]-pyridin-4-ylmethyl-amine] |
